This is an account of results in patent US6716596B2, “Agents for replacement of NAD+/NADH system in enzymatic reactions” (The Regents of the University of California, priority 2001, dated 2004).

The nature of data set [1]: regioselective reduction of biomimics with catalyst precursor (2) and sodium formate, followed by 1H NMR. Conditions: for catalytic hydride transfer: reduction with (2) and HCO2Na, 1H NMR. On the procedure: The relative rates, seen tabulated in FIG. 1C, were determined by observing disappearance of the pyridinium signals versus an internal standard, [(CH3)4N]OTf (tetramethylammonium triflate), during the first 2 hours, where the relative rate of 1-benzylnicotinamide triflate (1) was set to 1.0. The turnover frequencies were calculated by the formation of mmol of product/mmol of catalyst/hour. The total turnover number in 24 hours was ˜95 for all substrates that gave product. The reactions were conducted in presilylated J. Young NMR tubes and were followed by ^1H NMR.
The electronic effect of differently substituted nicotinamide substrates was determined by their relative rates. The relative rates of these compounds were determined by observing the disappearance of the pyridinium signals compared to interval standard, [(CH3)4N]OTf, during the first 2 hours, where the relative rate of compound (1a) was 1.0.
In a typical reaction, a J. Young NMR tube was charged, biomimic substrates (1a)-(1i) (1.0 mol), 2 (1% mol), and HCO2Na (1.1 mol) used as the hydride source and a Schlenk techniques were conducted to deoxygenate the solid mixture. A diluted solvent was added to these solids for compounds (1a)-(1i), the solvent was D2O-THF-d8 (1=1 0.75 mL, deoxygenated), and the NMR tube was placed in a liquid nitrogen bath. The contents were further degassed by two successive freeze-pump-thaw cycles. After thawing out the reaction mixture, the J. Young NMR tube was immediately put in a salted ice-bath and covered with aluminum foil. The reaction was then followed by ^1H NMR spectroscopy at 26° C. temperature, after a speedy thawing out.
The given relative rates and turnover frequencies were determined by decreasing integration of the corresponding pyridinium salts measured against an internal standard, (CH3)4N(OTf), during the first 2 h of the reaction. The ratios of the 1,4- and 1,6-dihydronicotinamide derivatives of compounds (1a), (1b) and (1d)-(1g) were obtained by comparison of the resonance signals with those of authentic samples, where the diagnostic signal is the resonance for —CH2Ph moiety which can be identified unambiguously in the ^1H NMR spectrum.

The target in data set [2] is T1, horse liver alcohol dehydrogenase (HLADH) (Equus caballus, UniProt P00327).
T1 construct: purchased Sigma
T1 sequence (P00327 2-375 limits assumed): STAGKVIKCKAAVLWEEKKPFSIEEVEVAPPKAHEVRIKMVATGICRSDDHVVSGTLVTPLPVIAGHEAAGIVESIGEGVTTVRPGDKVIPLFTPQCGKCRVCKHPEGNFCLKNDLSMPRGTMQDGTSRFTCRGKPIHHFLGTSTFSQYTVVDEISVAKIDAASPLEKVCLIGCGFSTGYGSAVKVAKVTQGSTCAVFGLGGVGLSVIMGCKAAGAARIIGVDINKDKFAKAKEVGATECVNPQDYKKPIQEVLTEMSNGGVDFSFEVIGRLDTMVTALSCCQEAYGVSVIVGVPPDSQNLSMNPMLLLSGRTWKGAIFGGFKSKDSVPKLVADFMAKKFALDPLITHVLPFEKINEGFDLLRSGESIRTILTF
Briefly: HLADH enzymatic chiral reduction of ketones with biomimic co-factor regeneration. The data set is classed as biochemical. The procedure:
FIG. 7 presents structures of ketone substrates 12-15 used for biomimic chiral synthesis of corresponding alcohols. Conversion of the substrates 12-15 to their corresponding alcohols are expressed in % yield, and TOF in d^−1 and S-enantiomer excess (ee) are also shown for each conversion. Corresponding values obtained with NAD^+ are given in parenthesis. The S-enantiomeric excess (ee) was determined by GLC with a modified β-cyclodextrin capillary column.
(§1) [Cp*Rh(bpy)(H2O)]OTf2 (1.9 mg, 2.61×10^−3 mmol), sodium formate (17.8 mg, 261.69×10^−3 mmol), NAD^+ (8.1 mg, 11.23×10^−3 mmol) and HLADH (10 units) were placed in a 10 mL Schlenk flask, and Schlenk techniques were followed to deoxygenate the solid mixture.
(§2) Under positive argon pressure, 5 mL of potassium phosphate buffer (100 mM, pH=7.02, deoxygenated) and carbonyl substrate (83.58×10^−3 mmol, deoxygenated) were added via syringe. The reaction flask was immediately securely capped with a glass-stopper and shaken with a shaker in 30° C. water-bath. The reaction was monitored by gas chromatography (GC), equipped with a β-cyclodextrin column (Supelco, β-DEX-225), and the products were identified by comparing the retention time with the corresponding authentic chiral samples and were confirmed by GC-MS. The enantiomeric excess of the products was determined directly by their relative area in the chromatogram. The progress of the reaction was obtained by mixing the reaction aliquot with an internal standard (cyclohexanol in phosphate buffer), and then calibrating the measured relative area in the chromatogram with their corresponding response factors. The reaction was monitored for 24 hours.
The same procedure as described in section A was followed, except that NAD^+ was substituted with any one of the biomimic compounds of the invention.

Data set [3] is described as follows: competitive regioselective substrate reduction experiments with rhodium catalyst precursor (2). Conditions: for competitive rate: reduced in the presence of compound (1a); for times faster than compound (1): competitive reduction with compound (1). On the procedure:
In order to establish whether the σ-donating ability or the electron-withdrawing effect of the 3-substituent of the 1-benzylnicotinamide was the important parameter, several competitive substrate reduction experiments were performed.
For this purpose, the compound (1a) 1-benzylnicotinamide, was reduced with rhodium catalyst precursor (2) in the presence of its alternatively substituted derivatives, compounds (1e), substituted with —C(O)—CH3, (1g), substituted with (—CN), (1d), substituted with —C(S)NH2 or (1f), substituted with —C(O)OCH3, and their competitive reduction was determined.

A short description of data set [4]: stability observations (light, air, solvent). The data set is classed as physicochemical.
Data set [5] is described as follows: UV-vis kinetics of the regioselective reduction with rhodium catalyst precursor (2) and formate. From the text:
The kinetics of the regioselective reduction reactions were further studied utilizing UV-vis techniques with the two biomimic compounds (1) and (6) and the results were compared to NAD^+ itself. Experimental conditions are described in Example 9.
The effect of the initial rate (ri) at low conversions to the 1,4-dihydro product (˜10%) was ascertained by varying the amount of substrate precatalyst (2) and sodium formate concentrations.
The initial rates (ri) of formation of compound (3) were obtained from plots of concentration (absorbance at 354 nm/ε) versus time at low conversions (˜10%). The values of kcat were calculated at 299° K.
Rates were obtained via UV-vis techniques and are an average of two runs.
This example describes studies producing kinetic and thermodynamic data for 1-benzylnicotinamide triflate (1a) performed in THF/H2O, 1:1, β-nicotinamide -5′-ribose methyl phosphate (6) H2O, pH=6.5, and NAD^+ performed in the regioselective reduction with [Cp*Rh(bpy)H2O)][OTf]2, 2 and in the presence of formate ion.
The kinetic experiments were carried out on a Hewlett Packard 8452A Diode Array Uv-Vis spectrophotometer, attached to a circulating water bath (VWR 1160). For experiments conducted at different temperatures, the circulating water bath, as well as the UV-vis instrument, were warmed up for at least an 1 hour before the kinic studies were initiated.
The 1-benzylnicotinamide triflate (1a) [CP*Rh(bpy)(H2O)][OTf]2 (2) and 1-benzyl-1,4 dihydronicotinamide (3) were synthesized by methods as described in Examples 2, 4 and 7. The NAD^+ and 1,4-NADH compounds were purchased from Sigma and used as received. The THF was distilled from Na and deoxygenate with N2 gas for 1 hour. Distilled water was purchased from Aldrich Chemical Co and deoxygenate prior to being used. A solution of THF/H2O (similar for 1:1 or 1:4 ratios) was used for all the kinetic experiments performed for compounds of 1-benzylnicotinamide type, unless otherwise specified. A stock solution of biomimic (1a) (0.018 M), 2 (6.23×10^−3 M), and sodium formate (0.25 M) were made for the kinetic experiments in THF/H2O (1:1).
A solution of 1-benzylnicotinamide triflate (1a), (4.29×10^−3 M) and sodium formate (0.0539) was made in a volumetric flask (10 mL) under N2 in a THF/H2O (1:1) mixture. The different concentration of biomimic (1a) and sodium formate used for the kinetic experiments are reported above.
A 3.0 mL aliquot of this solution was transferred to a thermostated UV-vis cell by using an air-free syringe, which was also purged with N2 gas. The sample was then brought to the desired temperature for 30-60 min in the UV-vis spectrophotometer thermostated cell holder. Then, 23 μL of a 6.23×10^−3 M stock solution of [CP*Rh(bpy)(H2O)^2+ (2), was added-by syringe under a positive N2 pressure, quickly mixed with the solution, and the absorbance increase at 354 nm was immediately recorded. The experiment was carried out for 2 hours and the formation of the product, 1-benzyl-1,4-dihydronicotinamide, (3) was followed, with the change in absorbance being recorded every 90 seconds. Some kinetic experiments were carried out until all the starting material was converted to product. The induced volume change was taken into account for the calculation of the turnover frequency (TOF).
The kinetic experiments for the β-nicotinamide-5′-ribose methyl phosphate (6) and natural NAD^+ were performed using the same general procedure described above. These kinetic experiments were carried out in H2O and the concentration of β-nicotinamide-5′-ribose methyl phosphate (6) or NAD^+, sodium formate, and [Cp*Rh(bpy)(H2O)]^2+ (2), were in the order of 1.50×10^−3, 0.0186 M, and 1.42×10^−5 M, respectively. The λmax for the β-nicotinamide-5′-ribose methyl phosphate, (6), and natural NAD^+ was 336 nm. In all the initial rate plots, time =0 s was removed from the plots of Concentration versus Time. The standard deviation of the ri were calculated from 2σ values.

The target in data set [6] is T1, horse liver alcohol dehydrogenase (HLADH). Briefly: biomimetic reduction of norcamphor (racemic). Conditions: reaction with the biomimics of the invention. Format: biochemical. The procedure:
Biomimic yield expressed in equivalent was 86% corresponding to NAD^+ yield of 94% under the same conditions.
as §1, §2
The procedure described in section A is equally applicable to reduction of racemic compounds such as norcamphor, seen in FIG. 8. The method requires the following modification. Due to the sublimation of norcamphor in vacuo, the addition of norcamphor was conducted under positive argon pressure, followed by the addition of phosphate buffer via syringe.

Where a name gives a salt, the structure may show the parent alone.

Take `O=S(=O)([O-])C(F)(F)F.c1ccc(C[n+]2ccccc2)cc1` [Compound 1i, 1-Benzyl-pyridinium triflate]: the catalytic hydride transfer result in data set [1] is on record as “not observed”.
In the case of `CC(=O)c1ccccc1` [Compound 14, acetophenone], in data set [2], the “enantiomeric excess of chiral alcohol from the ketone substrate, S-enantiomer” value is given as above 96 % ee and the “yield of chiral product” value was 5%.
With `CC(=O)c1ccc[n+](Cc2ccccc2)c1.O=S(=O)([O-])C(F)(F)F` [Compound 1e, 1-Benzyl-3-acetylpyridinium Triflate], the competitive rate in data set [3] was determined as 0.9.
On to `NC(=O)C1=CN(Cc2ccccc2)C=CC1` [Compound 3, 1-benzyl-1,4-dihydronicotinamide], for which the “recognition by HLADH as hydride catalyst of the chiral conversion” value in data set [2] is recorded as “recognizes”.
Regarding `COP(=O)([O-])OC[C@H]1O[C@@H]([n+]2cccc(C(N)=O)c2)[C@H](O)[C@@H]1O` [Compound 6, β-nicotinamide ribose-5′-methyl phosphate], the stability entry in data set [4] is “light-sensitive and somewhat air-sensitive”. Besides, the TOF in data set [5] (294° K, H2O at pH 6.54, substrate 1.55 × 10^−3 M) turned out to be 7 h⁻¹. For the same compound, the ri initial rate in data set [5] (294° K, H2O at pH 6.54, substrate 1.55 × 10^−3 M, average of two runs) was found to be 2.82e-08 M/s. For the same compound, the “initial rate, times higher than compound (1) in THF/H2O (1:1)” value in data set [5] (acqueous medium, comparable concentrations) is reported as around 3 times. For the same compound, in data set [2], the “recognition by HLADH as hydride catalyst of the chiral conversion” value is given as “recognizes”. For the same compound, the “turnover frequency of chiral ketone reduction” value in data set [2] (ketone (12) reduced by HLADH with co-factor regeneration, 24 hours) is around 30 day⁻¹. In data set [1], the “TOF, times higher than those of compounds (1a)-(1i)” value is on record as “approximately 2.5 times”. Further, the “TOF, times higher than 1-benzylnicotinamide” value in data set [1] (in water vs 1-benzylnicotinamide in THF/water) is given as “about 2.5 times”. For the same compound, the “turnover frequency (TOF) in the regioselective reduction” value in data set [1] (reduction to 1,4-dihydro derivative, NAD+ under the same conditions) turned out to be 20 h⁻¹.
Consider `N#Cc1ccc[n+](Cc2ccccc2)c1.O=S(=O)([O-])C(F)(F)F` [Compound 1g, 1-Benzyl-3-cyanopyridinium triflate], for which the competitive rate in data set [3] is 0.8.
Consider `CCN(CC)C(=O)c1ccc[n+](Cc2ccccc2)c1` [Compound 1c, 1-Benzyl-N,N-diethylnicotinamide, Triflate Salt], for which the catalytic hydride transfer result in data set [1] was “not observed”.
`NC(=S)c1ccc[n+](Cc2ccccc2)c1` [Compound 1d, 1-Benzylthionicotinamide, Triflate Salt]: the “times faster than compound (1)” value in data set [3] was determined as 1.3 times.
With `COP(=O)(O)OC[C@H]1O[C@@H](N2C=CCC(C(N)=O)=C2)[C@H](O)[C@@H]1O`, the stability result in data set [4] is “both light- and air-sensitive”.
As for `Cc1ccc[n+](Cc2ccccc2)c1.O=S(=O)([O-])C(F)(F)F` [Compound 1h, 1-Benzyl-3-methylpyridinium triflate], the catalytic hydride transfer entry in data set [1] is given as “not observed”.
Turning to `C[n+]1cccc(C(N)=O)c1` [1-methylnicotinamide, 1-Methylnicotinamide Triflate Salt], the “relative rate ratio of 1-benzyl/1-methylnicotinamide” value in data set [1] is given as 2.0. The “relative rate of regioselective reduction” value in data set [1] (disappearance of pyridinium signals vs [(CH3)4N]OTf during first 2 hours, compound (1a) set to 1.0) was 0.5.
For the compound `CC(=O)Cc1ccccc1` [Compound 13, benzylmethylketone], in data set [2], the “enantiomeric excess of chiral alcohol from the ketone substrate, S-enantiomer” value is recorded as above 99 % ee.
As to `O=C1CC2CC[C@H]1C2` (racemic) [Compound 16, norcamphor], the “exo/endo alcohols formed from norcamphor enantiomer” value in data set [6] is “exclusively the endo alcohol”.
In the case of `O=C1CC2CC[C@H]1C2` (racemic) [Compound 17, norcamphor], in data set [6], the “exo/endo alcohols formed from norcamphor enantiomer” value is “approximately equal mixture of exo and endo alcohols”.
Take `COC(=O)c1ccc[n+](Cc2ccccc2)c1.O=S(=O)([O-])C(F)(F)F` [Compound 1f, 1-Benzyl-3-carbomethoxypyridinium Triflate]: the “times faster than compound (1)” value in data set [3] came to 1.2 times.
Consider “[Cp*Rh(η^2-(N,N)-2,2′-bipyridyl)(H2O)](OTf)2 [Compound 2]”, for which the stability result in data set [4] is on record as “stable as a solid in the air”.
